Reference: patent publication US12329158B2, “Large-scale methods of uniformly coating packaging surfaces with a volatile antimicrobial to preserve food freshness” (AGROFRESH INC., priority 2013, dated 2025)
Converted amounts (≈) assume the structure as drawn.

Columns and labels:
[1] = system: Trichophyton mentagrophytes; test: In vitro contact assay (Example 26); type: cell-based; settings: 5 days at 28 C, 100% control; for MIC: Trichophyton mentagrophytes, 120 h, read-out: MIC (mg/L) Trichophyton mentagrophytes
Experimental: (§1) Half-strength Potato Dextrose Agar (PDA) is amended with a mixture of one of the test compounds in acetone or methanol to a final concentration of 50, 10, 2, 0.4 or 0.08 mg/L. A 3-mL volume of the amended media is added to each well of the microtiter plate. […] The plates are sealed with a clear film and incubated inverted for 5 days at 28° C.

Epidermophyton floccus [2] = test: In vitro contact assay (Example 26); type: cell-based; settings: 5 days at 28 C, 100% control; for MIC: Epidermophyton, 120 h, read-out: MIC (mg/L) Epidermophyton floccus
Experimental: as §1

Trichophyton rubrum [3] = test: In vitro contact assay (Example 26); type: cell-based; settings: 5 days at 28 C, 100% control; for MIC: Trichophyton rubrum, 120 h, read-out: MIC (mg/L) Trichophyton rubrum
Experimental: as §1

[4] = system: Trichophyton mentagrophytes; test: In vitro volatile assay (Example 26); type: cell-based; settings: 5 days at 28 C, 100% control; for MIC: Trichophyton mentagrophytes, 120 h, read-out: MIC (mg/L) Trichophyton mentagrophytes
Experimental: (§2) Volatile assay: 6-well (16.5 mL volume per well) microtiter plates are used in an in vitro inhibition assay for Compounds A and 31, and compared to other registered fungicides (5-fluorocytosine, Amphotericin B, aspofungin diacetate, Fluconazole and Itraconazole). A 7.5-mL volume of half strength PDA is added to each well. After drying, a mycelial plug (5 mm diameter) is aseptically obtained from actively growing cultures of Epidermophyton floccus, Trichophyton rubrum, or Trichophyton mentagrophytes and placed at the center of the plate with the mycelial side in contact with the agar. A Whatman #1 filter disk (Cat. No. 1001-325) is placed, in duplicate, on the underside of a polyethylene PCR plate sealing film. […] The headspace around the inoculum is then sealed inside the well by the film with the adhering disk containing the fungicide and incubated inverted for 5 days at 28° C.

Epidermophyton floccus [5] = test: In vitro volatile assay (Example 26); type: cell-based; settings: 5 days at 28 C, 100% control; for MIC: Epidermophyton, 120 h, read-out: MIC (mg/L) Epidermophyton floccus
Experimental: as §2

Trichophyton rubrum [6] = test: In vitro volatile assay (Example 26); type: cell-based; settings: 5 days at 28 C, 100% control; for MIC: Trichophyton rubrum, 120 h, read-out: MIC (mg/L) Trichophyton rubrum
Experimental: as §2

Botrytis cinerea = test: Volatile MIC assay (Example 9); type: cell-based; settings: 72 h, headspace concentration, 3 days at 23 C, read-out: MIC (mg/L) BOTRCI
Experimental: (§3) A 3-mL volume of full-strength Potato Dextrose Agar (PDA) is added to each well. […] Plates are inoculated immediately prior to volatile fungicide treatment. A Whatman #1 filter disk (Cat. No. 1001-0155) is placed, in duplicate, on the underside of a polyethylene PCR plate sealing film. […] The acetone is permitted to evaporate for 5 minutes. The headspace around the inoculum is then sealed inside the well by the film with the adhering disk containing the fungicide by inverting the plates over the treated disks and sealing to prevent any of the chemical from flaking from the disk and falling onto the inoculated agar.

Glomerella cingulata = test: Volatile MIC assay (Example 9); type: cell-based; settings: Colletotrichum gloeosporioides, 72 h, headspace concentration, 3 days at 23 C, read-out: MIC (mg/L) GLOMCI
Experimental: as §3

Penicillium expansum [7] = test: Volatile MIC assay (Example 9); type: cell-based; settings: 72 h, headspace concentration, 3 days at 23 C, read-out: MIC (mg/L) PENIEX
Experimental: as §3

Alternaria alternata = test: Volatile MIC assay (Example 9); type: cell-based; settings: 72 h, headspace concentration, 3 days at 23 C, read-out: MIC (mg/L) ALTEAL
Experimental: as §3

Monilinia fructicola = test: Volatile MIC assay (Example 9); type: cell-based; settings: 72 h, headspace concentration, 3 days at 23 C, read-out: MIC (mg/L) MONIFC
Experimental: as §3

Penicillium digitatum [8] = test: Green mold on orange, contact assay (Example 25); type: in vivo; settings: Contact (dip); rate not given; day 3 at 21 C after 5 days at 1 C
Experimental: (§4) A 250 mL solution of each concentration is used to dip two inoculated fruits, one minute per fruit, performed in triplicate per rate. The dipped fruits are then placed back into the clamshells and then into the SnapWare container and incubated at 1° C. for 5 days. […] Volatile application of Compound A results in excellent inhibition of browning and sporulation, whereas all other active ingredients result in no or little inhibition.

Penicillium expansum [9] = test: Blue mold on apple and pear, volatile assay (Example 25); settings: 50 mg/L, day 3 at 21 C after 5 days at 1 C
Experimental: Two apples, pears or oranges are placed in a clamshell, and three fresh wounds are made near the equatorial region of each fruit. Each fruit wound is then inoculated with 20 μL of 1×10^6 spores per mL of Penicillium expansum or digitatum suspension, respectively. The inoculum is allowed to dry for two hours prior to treatment application as a volatile or contact.
Volatile Assay: Clamshells are then placed at the bottom of a 2.55-L SnapWare airtight container (Model #109842). […] The solutions are pipetted into Whatman filter disks mounted to the inside lid of the container. The chambers are then incubated at 1° C. for 5 days, removed to 21° C., and evaluated on day 3 by determining the diameter (mm) of rot development (browning) or sporulation.

Penicillium digitatum [10] = test: Green mold on orange, volatile assay (Example 25); type: in vivo; settings: 50 mg/L, day 3 at 21 C after 5 days at 1 C
Penicillium expansum [11] = test: Blue mold on apple and pear, contact assay (Example 25); type: in vivo; settings: Contact (dip); rate not given; day 3 at 21 C after 5 days at 1 C
Experimental: as §4

| Molecule | Orange Sporulation (mm) (Penicillium digitatum [8]) | Apple Browning (mm) (Penicillium expansum [9]) | Apple Sporulation (mm) (Penicillium expansum [9]) | Pear Browning (mm) (Penicillium expansum [9]) | Pear Sporulation (mm) (Penicillium expansum [9]) | Orange Sporulation (mm) (Penicillium digitatum [10]) | Apple Browning (mm) (Penicillium expansum [11]) | Apple Sporulation (mm) (Penicillium expansum [11]) | Pear Browning (mm) (Penicillium expansum [11]) | Pear Sporulation (mm) (Penicillium expansum [11]) | other results |
| --- | --- | --- | --- | --- | --- | --- | --- | --- | --- | --- | --- |
| C[C@@H]1[C@H](O)[C@@H](C)/C=C/C=C/C=C/C=C/C=C/C=C/C=C/[C@H](O[C@@H]2O[C@H](C)[C@@H](O)[C@H](N)[C@@H]2O)C[C@@H]2O[C@](O)(C[C@@H](O)C[C@@H](O)[C@H](O)CC[C@@H](O)C[C@@H](O)CC(=O)O[C@H]1C)C[C@H](O)[C@H]2C(=O)O [Amphotericin B] | – | – | – | – | – | – | – | – | – | – | MIC (mg/L) Trichophyton mentagrophytes [1]: >50 mg/L; MIC (mg/L) Epidermophyton floccus (Epidermophyton floccus [2]): 50.0 mg/L (≈ 54.1 µM); MIC (mg/L) Trichophyton rubrum (Trichophyton rubrum [3]): >50 mg/L; MIC (mg/L) Trichophyton mentagrophytes [4]: >50 mg/L; MIC (mg/L) Epidermophyton floccus (Epidermophyton floccus [5]): >50 mg/L; MIC (mg/L) Trichophyton rubrum (Trichophyton rubrum [6]): >50 mg/L |
| CC(C)OB1OCc2ccccc21 [Compound 9] | – | – | – | – | – | – | – | – | – | – | MIC (Botrytis cinerea): 2.2 mg/L (≈ 12.5 µM); MIC (Glomerella cingulata): 35.7 mg/L (≈ 203 µM); MIC (Penicillium expansum [7]): 8.9 mg/L (≈ 50.6 µM); MIC (Alternaria alternata): 8.9 mg/L (≈ 50.6 µM); MIC (Monilinia fructicola): 8.9 mg/L (≈ 50.6 µM) |
| c1ccc2[nH]c(-c3cscn3)nc2c1 [Thiabendazole] | 0.0 mm | 8.4 mm | 2.0 mm | 12.9 mm | 3.0 mm | >50 mm | 8.2 mm | 1.9 mm | 9.1 mm | 5.4 mm | – |
| Caspofungin diacetate | – | – | – | – | – | – | – | – | – | – | MIC (mg/L) Trichophyton mentagrophytes [1]: 50.0 mg/L; MIC (mg/L) Epidermophyton floccus (Epidermophyton floccus [2]): 2.0 mg/L; MIC (mg/L) Trichophyton rubrum (Trichophyton rubrum [3]): 10.0 mg/L; MIC (mg/L) Trichophyton mentagrophytes [4]: >50 mg/L; MIC (mg/L) Epidermophyton floccus (Epidermophyton floccus [5]): >50 mg/L; MIC (mg/L) Trichophyton rubrum (Trichophyton rubrum [6]): >50 mg/L |
| Nc1nc(=O)[nH]cc1F [5-Fluorocytosine, 5-fluorocytosine] | – | – | – | – | – | – | – | – | – | – | MIC [1]: > 50 mg/L; MIC (Epidermophyton floccus [2]): > 50 mg/L; MIC (Trichophyton rubrum [3]): > 50 mg/L; MIC [4]: > 50 mg/L; MIC (Epidermophyton floccus [5]): > 50 mg/L; MIC (Trichophyton rubrum [6]): > 50 mg/L |
| O=C(Nc1ccccc1-c1ccc(Cl)cc1)c1cccnc1Cl [Boscalid] | >50 mm | 10.3 mm | 2.4 mm | 14.3 mm | 3.6 mm | 30.3 mm | 7.0 mm | 0.8 mm | 8.6 mm | 2.3 mm | – |
| CCC(C)n1ncn(-c2ccc(N3CCN(c4ccc(OCC5COC(Cn6cncn6)(c6ccc(Cl)cc6Cl)O5)cc4)CC3)cc2)c1=O (centres unmarked) [Itraconazole] | – | – | – | – | – | – | – | – | – | – | MIC [1]: > 50 mg/L; MIC (Epidermophyton floccus [2]): > 50 mg/L; MIC (Trichophyton rubrum [3]): > 50 mg/L; MIC [4]: > 50 mg/L; MIC (Epidermophyton floccus [5]): > 50 mg/L; MIC (Trichophyton rubrum [6]): > 50 mg/L |
| N#Cc1c[nH]cc1-c1cccc2c1OC(F)(F)O2 [Fludioxonil] | 8.3 mm | 11.2 mm | 3.1 mm | 12.8 mm | 2.8 mm | 40.8 mm | 2.9 mm | 0.0 mm | 3.3 mm | 0.0 mm | – |
